According to patent publication US9096650B2, “Cyclic oligopeptides for binding to a target ligand” (LEXCICON LIMITED, priority 2006, dated 2015):
[ ]: non-standard residue; d: D form. Gly(decyl) = CCCCCCCCCC[C@H](N)C(=O)O

Assays:
[1] = system: J774A.1 cells (a macrophage cell line); assay type: cell-based; details: peptide 12.5 ug/ml; CTB 10 ug/ml; CTB alone 690.8, medium control 67.5
[2] = system: J774A.1 cells (a macrophage cell line); assay: Suppression of LPS-stimulated TNF secretion by cyclic analogues of Copaxone (Example 6); assay type: cell-based; details: for TNF concentration: peptide 12.5 ug/ml as cyclodextrin complex, LPS 0.1 ug/ml, medium + LPS 637.6
Method: • 1. Two cyclic oligopeptides were prepared with the following structures: cyclo(-A-K-Σ-Y-E-K-A-Σ-E-Y-) cyclo(-A-K-Σ-E-Y-K-A-Σ-Y-E-) • All amino acids are in the L form unless indicated otherwise. • All amino acids are linked by peptide bonds. • A, K, Y and E represent the epitope-forming amino acids and Σ represents the associating functional group borne on the associating amino acid wherein the associating amino acid is an L-alpha aminocarboxylic acid and the associating functional group is a side-chain residue consisting of a straight aliphatic chain containing ten carbon atoms. • The cyclic oligopeptides were prepared as solutions in hexafluoro-isopropanol (HFIP) at a concentration of 10 mg/ml, then mixed with equal volumes of HFIP solution containing beta-hydroxypropyl cyclodextrin at a concentration of 50 mg/ml. The organic solutions were then dried down under nitrogen, and the peptide/cyclodextrin complex redissolved in distilled water to give a final concentration of cyclic oligopeptide of 1 mg/ml. • 2. J774A.1 cells (a macrophage cell line) were plated out in all the wells of a 24-well cluster plate at a seeding density of 3×10^5 cells/ml/well (1 ml RPMI 1640 culture medium per well), and incubated overnight at 37° C. in 5% CO2/air. • 3. The following day, the solutions from step 1 were administered to wells containing cells in step 2, to give three wells each with a final concentration of 12.5 ug/ml of peptide. Additional wells containing cyclodextrin alone at 62.5 ug/ml were also prepared. The remaining wells were left untreated. The plate was incubated for a further four hours at 37 degC. • 4. Lipopolysaccharide (from E. coli strain 0111 B4) was added to the wells receiving the cyclic oligopeptide solution, as well as three of the wells receiving no peptide. The final concentration of lipopolysaccharide was 0.1 ug/ml. • 5. The plate was incubated overnight, and the following day the supernatants were assayed for TNF using a commercial ELISA kit.

thrombin = thrombin (Homo sapiens, UniProt P00734); assay: Inhibition of enzyme activity of thrombin, fluorogenic substrate (Example 7); assay type: biochemical
Method: 1. Cyclic oligopeptides of the following structures were synthesised as previously described, and prepared in complexed form with cyclodextrin at concentration of 1 mg/ml on Hanks Balanced Salts Solution using the procedure outlined in example 6. (i) cyclo(-R-E-Σ-S-R-E-R-Σ-S-E-) (ii) cyclo(-A-K-ΣE-Y-K-A-ΣY-E-) (iii) cyclo(-dF-R-C-S-dF-R-C-S-) (iv) cyclo(-dF-S-C-R-dF-S-C-R-)
2. In wells of a […] microplate, 20 ul of thrombin solution (0.01 mg/ml) were dispensed, and mixed with 60 ul of cyclic oligopeptide solution
3. 20 ul of the substrate boc-beta-benzyl-Asp-Pro-Arg-7-amido-4-methylcoumarin hydrochloride (0.01 mg/ml) was added to each well, and the time course of generation of […] was measured.

[3] = system: J774A.1 cells (a macrophage cell line); assay: Suppression of LPS-stimulated TNF secretion by cyclic oligopeptides containing two different epitopes (Example 8); assay type: cell-based; details: LPS 0.1 ug/ml
Method: • 1. Two cyclic oligopeptides were prepared with the following structures: (i) cyclo(-dF-S-Σ-Q-dL-S-Σ-R-) • and (ii) cyclo(-dF-S-Σ-L-dQ-S-Σ-R) • All amino acids are in the L form unless indicated otherwise. • All amino acids are linked by peptide bonds. wherein Q, L, S, R and F represent the epitope-forming amino acids and Σ represents the associating functional group borne on the associating amino acid wherein the associating amino acid is an L-alpha aminocarboxylic acid and the associating functional group is a side-chain residue consisting of a straight aliphatic chain containing ten carbon atoms.
These cyclic oligopeptides were prepared as solutions in transcutol/cyclodextrin, as described in example 4, to give a final concentration of peptide of 1 mg/ml, and cyclodextrin at 20 mg/ml. • 2. J774A.1 cells (a macrophage cell line) were plated out in all the wells of three 24-well cluster plates at a seeding density of 3×10^5 cells/ml/well (1 ml RPMI 1640 culture medium per well), and incubated overnight at 37° C. in 5% CO2/air. • 3. The following day, the solutions from step 1 were administered to wells containing cells in step 2, to give three wells each with a final concentration of 50, 25, 12.5, 6.25 or 3.125 ug/ml of cyclic oligopeptide. Additional wells containing cyclodextrin at 1, 0.5, 0.25, 0.125 and 0.0625 mg/ml were also prepared. The remaining wells were left untreated. The plate was incubated for a further four hours at 37 degC. • 4. Lipopolysaccharide (from E. coli strain 0111 B4) was added to the wells receiving the octapeptide solution, as well as three of the wells receiving no peptide. The final concentration of lipopolysaccharide was 0.1 ug/ml. • 5. The plate was incubated overnight, and the following day the supernatants were assayed for TNF using a commercial ELISA kit.

cyclo(-DF-R-Σ4-S-DF-R-Σ4-S-)
Concentration of TNF [1]: 664.4 pg/mL

cyclo(-A-K-Σ-Y-E-K-A-Σ-E-Y-) [cyclo(-A-K-Σ-Y-E-K-A-Σ-E-Y)]
effect on TNF secretion by macrophages compared with Copaxone ([2]; in words): displays the same effect on TNF secretion by macrophages | TNF concentration [2]: 486.9 pg/mL

cyclo(-DF-S-Σ10-R-DF-S-Σ10-R-)
Concentration of TNF [1]: 85.7 pg/mL

cyclo(-A-K-Σ-E-Y-K-A-Σ-Y-E-) (cyclo(AK[Gly(decyl)]EYKA[Gly(decyl)]YE); SMILES CCCCCCCCCC[C@@H]1NC(=O)[C@H](C)NC(=O)[C@H](CCCCN)NC(=O)[C@H](Cc2ccc(O)cc2)NC(=O)[C@H](CCC(=O)O)NC(=O)[C@H](CCCCCCCCCC)NC(=O)[C@H](CCCCN)NC(=O)[C@H](C)NC(=O)[C@H](CCC(=O)O)NC(=O)[C@H](Cc2ccc(O)cc2)NC1=O) [cyclo(-A-K-Σ-E-Y-K-A-Σ-Y-E), cyclic analogue of Copaxone; Σ = L-alpha aminocarboxylic acid with straight C10 side chain]
TNF concentration [2]: 928.8 pg/mL

cyclo(-DF-R-Σ10-S-DF-R-Σ10-S-)
Concentration of TNF [1]: 268.5 pg/mL

cyclo(-DF-S-Σ4-R-DF-S-Σ4-R-)
Concentration of TNF [1]: 621.1 pg/mL

cyclo(-dF-S-Σ-L-dQ-S-Σ-R) [Example 8 (ii)]
Thrombin proteolytic activity (Fluorescence Units - Arbitrary Units) (thrombin; time 2.0 minutes, enzyme alone 770.9, lower = more inhibition): 410.8 Arbitrary Units | Thrombin proteolytic activity (Fluorescence Units - Arbitrary Units) (thrombin; time 5.0 minutes, enzyme alone 1821.1): 816.4 Arbitrary Units | Thrombin proteolytic activity (Fluorescence Units - Arbitrary Units) (thrombin; time 10.0 minutes, enzyme alone 2163.5): 1189.4 Arbitrary Units | Thrombin proteolytic activity (Fluorescence Units - Arbitrary Units) (thrombin; time 15.0 minutes, enzyme alone 2253.2): 1398.6 Arbitrary Units | Thrombin proteolytic activity (Fluorescence Units - Arbitrary Units) (thrombin; time 20.0 minutes, enzyme alone 2345.8): 1592.1 Arbitrary Units | Thrombin proteolytic activity (Fluorescence Units - Arbitrary Units) (thrombin; time 25.0 minutes, enzyme alone 2359.0): 1673.2 Arbitrary Units | TNF concentration ([3]; peptide 3.125 ug/ml, 2856 = maximum detectable limit): 2648 ± 43 pg/mL | TNF concentration ([3]; peptide 6.25 ug/ml): 2325 ± 67 pg/mL | TNF concentration ([3]; peptide 12.5 ug/ml): 1748 ± 20 pg/mL | TNF concentration ([3]; peptide 25 ug/ml): 1437 ± 85 pg/mL | TNF concentration ([3]; peptide 50 ug/ml): 1081 ± 142 pg/mL
